The values below come from patent US9487551B2, “Small molecule compounds that control mammal-pathogenic nematodes” (California Institute of Technology, priority 2011, dated 2016).

Structures are written as SMILES. Entries after “also recorded” stand apart in the source; their conditions may differ.

The subject of one test is C. elegans dauer larvae. In words: Dispersal assay. Type of test: in vivo. The following applies: physiological concentration; 0.25% E. coli added; food-only control approximately 35%. The procedure:
C. elegans dauer juveniles were washed with MILLI-Q water 3 times, placed into 6 cm petri dishes with a small amount of water, and rested overnight. Approximately 200-300 nematodes in 10 μl of water were placed on an agar plate, to which 2 μl of treatment was added. The liquid culture that produced 60% dauer animals was centrifuged, filtered with a 0.45 μm filter, and used as a positive control for dispersal. Thereafter, media were lyophilized and resuspended in MILLI-Q water 5 times. 2 μl to 10 μl of nematode suspension was used for the assay. As a negative control, 0.5% E. coli (HB101) was prepared in S-complete, lyophilized, and adjusted to the final volume of 0.25% E. coli in the assay.
Nematodes were quantified using Image J software (Image Processing and Analysis in Java, National Institutes of Health). The number of nematodes visualized and counted using Image J is illustrated in FIG. 63B. Nematodes inside the circle were subtracted manually from the total number of worms counted because of the location of their placement. Each treatment was replicated 9-11 times. The graph was normalized to the positive control, the dauer conditioned medium.
A synthetic blend of these ascarosides was then tested for dispersal activity, using the dauer conditioned medium as a positive control. The media was estimated to contain approximately half of the original 0.5% E. coli (HB101) food source. […]

For another test, the system named is C. elegans males. In words: Attraction assay (long-range, point source). Type of test: in vivo. The following applies: 10 cm plate. As to the method:
10 cm standard chemotaxis plates were prepared (Bargmann et al., Cell 74:515-27 (1993), which is hereby incorporated by reference in its entirety) and stored at 4° C. until the day before use. Standard 1 cm-diameter copper pipes were sectioned into 1 cm-tall segments to use for the holding chambers. The females/hermaphrodites were isolated overnight, washed 3 times in M9 buffer, and then allowed to wander on a plate pre-conditioned with 50 uL of 1000× treptomycin for 2 hours to kill any bacteria that might produce a false positive attractant. The nematodes were then washed 3 times, and the supernatant from the last wash was placed in a copper chamber, as the control, 1 cm from the border of the 10 cm plate. The nematodes were suspended in M9 within the copper chamber, 1 cm from the border opposite the control chamber. After 6 hours, they were subsequently removed and replaced with 3 μL of 1M sodium azide. 100 C. elegans adult males were isolated overnight, washed several times in ddH2O, and placed at the center of the agar plate. After several hours, males paralyzed within 2 cm of each region were scored. The Chemotaxis Index (Bargmann et al., Cell 74:515-27 (1993), which is hereby incorporated by reference in its entirety) was then used to score male chemotaxis to either point source.

A further test has as its system Panagrellus redivivus. As to the kind of experiment: Ascaroside function (Table 12). Type of test: in vivo. As to conditions: listed = has this function. The procedure:
(§1) Various ascarosides and ascaroside blends were administered to various nematodes described below (Table 12). […] A very strong result of affecting nematode behavior is designated in the table as “strong.”

The next test deals with S. glaseri. In words: Ascaroside function (Table 12). The format is in vivo. As to conditions: listed = has this function. The procedure:
as §1

For the next test, the system named is S. feltiae. As to the kind of experiment: Ascaroside function (Table 12). Type of test: in vivo, Steinernema feltiae. As to conditions: listed = has this function. The procedure:
as §1

In test [1] the test system is C. elegans. As to the kind of experiment: Ascaroside function (Table 12). Type of test: in vivo, Caenorhabditis elegans. Further details: key to Attract Females/Herm. / Promote Dauer Formation / Attract Males: A very strong result of affecting nematode behavior is designated in the table as “strong.”. As to conditions: listed = has this function. As to the method: as §1

Test [2] relates to C. elegans. The following applies: in vivo; cited from earlier work.
Test [3] relates to Several of the tested nematode species. In words: Retention assay. As to conditions: 1 nM, 1 μM and 1 mM tested. The format is in vivo. The procedure:
(§2) OP50 E. coli was grown on a standard 5 cm agar plate (made with standard Nematode Growth Medium). The bacterial lawn was 16 mm in diameter and was grown overnight at 20° C. before being used in trials. Two 4 mm spots (0.6 μL) were placed on opposite sides of the bacterial lawn (using a transparent template to guide spot placement), and several minutes elapsed for the liquid to settle in before placing nematodes down on the assay. Recording began immediately upon worm placement. 0.6 μL of the control was placed on one side of the lawn, and 0.6 μL of the experimental cue was placed on the other side of the lawn, changing the location of the cue throughout trials between left/right and top/bottom to avoid bias.
(§3) Nematodes were isolated by gender at the L4 stage the day before being used in trials as developed adults. Worms were evenly divided and placed at two points equidistant from the foci of the scoring region. Trials were recorded for 20 minutes, and frames were collected for analysis at 1 frame per second. Results were averaged from at least three different trials. For every nematode species in this study, a different total number of worms (using water in both scoring regions) was tested to determine the minimum number of worms necessary for consistent unbiased results over a 20 minute trial. The total number of worms used in the multiple species assays depended on that species' optimal parameters. 10 worms were used for P. redivivus males and females, 20 worms were used for C. elegans males and O. dolichuridae males, and 14 worms were used for S. glaseri males. The Automated Software was used to compare worm occupancy in each scoring region over time, and the Chemotaxis Index (Bargmann et al., Cell 74:515-27 (1993), which is hereby incorporated by reference in its entirety) was adapted to score preference or avoidance to each ascaroside.
(§4) A video camera attached to the microscope produced a digital video stream, which was then analyzed. The ratio of the time the average worm spent in each region of interest was calculated for every trial. For ease of implementation, all worms in a single experiment were assumed to be roughly the same size. Thus worm pixels were counted instead of whole worms, allowing fractions of a worm in the region of interest to be taken into account. It also eliminated the need for a shape-based worm identification algorithm, and allowed each frame to be analyzed independently. A band-pass filter was applied to each frame to eliminate the effect of uneven lighting and also accentuate the worms against the background. The worm was then identified after thresholding the filtered image. Throughout each experiment, the locations and sizes of the regions of interest were known. Through the filtering described above, it is known which pixels are occupied by worms and which ones are not. Thus, the ratio of worm-pixels to all pixels inside the region of interest can be calculated to produce the worm-occupancy ratio. This calculation was done for every frame, giving a plot output of worm-occupancy ratio vs. time for each region.

Test [4] deals with C. elegans. As to conditions: cited from earlier work.
Test [5] has as its system C. elegans. As to the kind of experiment: Aggregation assay. Type of test: in vivo. The procedure:
Aggregation behavior of worms was measured using assays reported in de Bono & Bargmann, Cell 94:679-89 (1998), which is hereby incorporated by reference in its entirety. Aggregation assays were conducted on standard NGM plates. Plates containing indole ascarosides were made by adding the indole ascaroside stock solution to the NGM media before they were poured onto the plates. These plates were dried at room temperature for 2 to 3 days. Control plates were treated similarly, except that ethanol solutions instead of icas solutions were added to the plates, corresponding to the amount of ethanol introduced via the icas solutions. Final ethanol concentrations of the plates were below 0.1% for all conditions. After drying, both control plates and plates containing indole ascarosides were seeded with 150 μl of an overnight culture of E. coli OP50 using a micropipette, and were allowed to dry for 2 days at room temperature. For “low worm density” experiments, 20 worms were placed onto the lawn and left at 20° C. for 3 hours. For “high worm density” experiments, approximately 120 worms were placed onto the bacterial lawn and left at 20° C. for 3 hours. Aggregation behavior was quantified as the number of animals that were in touch with two or more animals at greater than 50% of their body length.

The test system of test [6] is C. elegans. As to the kind of experiment: Spot attraction assay. Type of test: in vivo. The procedure:
The spot attraction assays were conducted according to a previously reported method (Pungaliya et al., PNAS 106:7708-13 (2009); Srinivasan et al., Nature 454:1115-18 (2008), which are hereby incorporated by reference in their entirety). For both C. elegans hermaphrodites and males, 50-60 worms were harvested daily at the fourth larval stage (L4) and stored segregatedly by sex at 20° C. overnight, to be used as young adults the following day. For the competition experiments, two conditions were used: 120 nM ascr#3 and 10 nM icas#3 (Condition 1), or 12 μM ascr#3 and 1 μM icas#3 (Condition 2) in water containing 10% ethanol. Aliquots were stored at −20° C. in 20 μL tubes. 10% ethanol in water was used as control.
Attraction assays with hbas#3 were conducted as previously reported (Srinivasan et al., Nature 454:1115-18 (2008); Pungaliya et al., Proc. Natl. Acad. Sci. U.S.A. 106:7708-13 (2009), which are hereby incorporated by reference in their entirety). For the attraction assays, 50-60 hermaphrodite worms were harvested daily at the early fourth larval stage (L4) and stored at 20° C. overnight to be used as young adults the following day. Hbas#3 was dissolved in water containing 10% ethanol. Aliquots were stored at −20° C. in 20 μL tubes. 10% ethanol in water was used as control.

The test system of test [7] is P. redivivus males and females. In words: Retention assay. Type of test: in vivo. As to the method: as §2, §3, §4

Turning to `C[C@H](CC/C=C/C(=O)Nc1ccc(C(=O)O)cc1)O[C@@H]1O[C@@H](C)[C@H](O)C[C@H]1O` [ascr#8], the “dispersing nematodes, normalized to the percent of the positive control response” value with C. elegans dauer larvae amounted to 50%. Moreover, in the test with C. elegans males, the “male attraction from a distance” value is on record as “not active”. In the test on Panagrellus redivivus, the “Attract Females/Herm.” value is reported as “ascr#8” and the “Attract Males” value is listed as “ascr#8”. The “Attract Males” value with S. glaseri was “ascr#8”. Further, the “Dispersal (of dauer larvae, infectious juveniles)” value (“Dispersal” for short) with S. feltiae is recorded as “ascr#8”. Further, in the test on C. elegans [1], the “Attract Males” value was “ascr#8”; the “Dispersal” value is on record as “ascr#8”; the “Promote Dauer Formation” value was “ascr#8 ([strong])”. The dauer-inducing activity result in the test with C. elegans [2] is listed as “individually promote dauer entry”. In addition, the “preference for ascaroside-conditioned areas” value in [3] is given as “preferred areas conditioned”. Besides, the male attraction result in the test on C. elegans [4] (in vivo) is listed as “major component of the male-attracting signal”.
`C[C@H](CCC(=O)O)O[C@@H]1O[C@@H](C)[C@H](OC(=O)c2c[nH]c3ccccc23)C[C@H]1O` [icas#9]: the “aggregation of solitary and social hermaphrodites” value in the test on C. elegans [5] (constant background concentration) was “increased aggregation; also recorded: strongly increased the propensity”. The “concentration window for hermaphrodite attraction and aggregation” value in the test with C. elegans [5] (in vivo) was “femtomolar to picomolar”. The “Repel Females/Herm.” value with Panagrellus redivivus was “icas#9”. For the same compound, the “attraction in spot attraction assay” value with C. elegans [6] (1 pmol (high concentrations), N2 hermaphrodites and him-5 males) is “attractive to both C. elegans sexes; also recorded: attracted both males and hermaphrodites”. Besides, the attraction of hermaphrodites entry in the test on C. elegans [6] (low concentrations, N2 hermaphrodites) was “strongly attracted”. Besides, the attraction of males result in the test on C. elegans [6] (low concentrations, males) was “males are not attracted”. Further, the “Dispersal” value in the test on S. feltiae is given as “icas#9”. Also, in the test on C. elegans [1], the “Attract Females/Herm.” value is “icas#9 ([strong])”, the “Attract Males” value was “([strong])” and the “Promote Dauer Formation” value was “icas#9”. Further, the dauer-inducing activity entry in the test with C. elegans [2] is on record as “moderate dauer-inducing activity; also recorded: individually promote dauer entry”. The “response of P. redivivus males” value in [7] was “no response”. In addition, the aggregation result in the test on C. elegans [4] (in vivo) was “aggregating stimulant”.
For `CC(=O)CCC[C@@H](C)O[C@@H]1O[C@@H](C)[C@H](O)C[C@H]1O` [ascr#2], in the test on C. elegans dauer larvae, the “dispersing nematodes, normalized to the percent of the positive control response” value is given as 40%. In the test on C. elegans males, the “amount as low as which elicited C. elegans male attraction” value is given as 500 attomol and the “male attraction from a distance” value is on record as “chemotax towards”. For the same compound, the “Dispersal” value in the test with S. feltiae is recorded as “ascr#2”. For the same compound, in the test with C. elegans [1], the “Attract Males” value is reported as “ascr#2”; the “Dispersal” value is listed as “ascr#2”; the “Promote Dauer Formation” value is “ascr#2 ([strong])”. Further, in the test on C. elegans [2], the dauer-inducing activity result was “individually promote dauer entry”. The “most active amount for attraction” value in the test on C. elegans [4] (from 1 μM concentration) is approximately 1 pmol.
